The supplement of paper PMC10307832

Legend:
Experiment in all cases: relative viability (nuclei count vs DMSO), 5 days (fraction); higher = more cells survive
Bortezomib + Decitabine = compound: CC(C)C[C@H](NC(=O)[C@H](Cc1ccccc1)NC(=O)c1cnccn1)B(O)O [Bortezomib] + Nc1ncn([C@H]2C[C@H](O)[C@@H](CO)O2)c(=O)n1 [Decitabine] (partner 2 µM)
Outline: (§1)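 Relative viability is defined as nuclei in treated wells over nuclei in vehicle wells. Duplicate plates were run and medians reported. Lung cancer cell lines in 1536-well plates were dosed by pin tool one day after seeding, with one drug or with a fixed anchor-drug dose plus five library-drug doses (not always all listed) in √10 steps, and nuclei were counted after 5 days.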

Bortezomib + Tozasertib = compound: CC(C)C[C@H](NC(=O)[C@H](Cc1ccccc1)NC(=O)c1cnccn1)B(O)O [Bortezomib] + Cc1cc(Nc2cc(N3CCN(C)CC3)nc(Sc3ccc(NC(=O)C4CC4)cc3)n2)n[nH]1 [Tozasertib] (partner 0.1 µM)
Outline: as §1

[1] = compound: CC1=CC(=NN1)NC2=CC(=NC(=N2)/C=C/C3=CC=CC=C3)N4CCN(CC4)C + C[C@@H](Oc1cc(-c2cnn(C3CCNCC3)c2)cnc1N)c1c(Cl)ccc(F)c1Cl [Crizotinib] (partner 1 µM)
Outline: as §1

Bortezomib + Navitoclax = compound: CC(C)C[C@H](NC(=O)[C@H](Cc1ccccc1)NC(=O)c1cnccn1)B(O)O [Bortezomib] + CC1(C)CCC(c2ccc(Cl)cc2)=C(CN2CCN(c3ccc(C(=O)NS(=O)(=O)c4ccc(N[C@H](CCN5CCOCC5)CSc5ccccc5)c(S(=O)(=O)C(F)(F)F)c4)cc3)CC2)C1 [Navitoclax] (partner 0.5 µM)
Outline: as §1

Cell Line	relative viability (Bortezomib + Decitabine; first compound 0.0002 µM)	relative viability (Bortezomib + Decitabine; first compound 0.000632 µM)	relative viability (Bortezomib + Decitabine; first compound 0.002 µM)	relative viability (Bortezomib + Decitabine; first compound 0.006325 µM)	relative viability (Bortezomib + Decitabine; first compound 0.02 µM)	relative viability (Bortezomib + Tozasertib; first compound 0.0002 µM)	relative viability (Bortezomib + Tozasertib; first compound 0.000632 µM)	relative viability (Bortezomib + Tozasertib; first compound 0.002 µM)	relative viability (Bortezomib + Tozasertib; first compound 0.006325 µM)	relative viability (Bortezomib + Tozasertib; first compound 0.02 µM)	relative viability ([1]; first compound 0.08 µM)	relative viability ([1]; first compound 0.253 µM)	relative viability ([1]; first compound 0.8 µM)	relative viability ([1]; first compound 2.53 µM)	relative viability ([1]; first compound 8 µM)	relative viability (Bortezomib + Navitoclax; first compound 0.0002 µM)	relative viability (Bortezomib + Navitoclax; first compound 0.000632 µM)	relative viability (Bortezomib + Navitoclax; first compound 0.002 µM)	relative viability (Bortezomib + Navitoclax; first compound 0.006325 µM)	relative viability (Bortezomib + Navitoclax; first compound 0.02 µM)
LK-2	0.274	0.384	0.281	0.227	0.15	0.182	0.191	0.173	0.157	0.161	0.193	0.221	0.208	0.262	0.203	0.828	0.878	0.238	0.172	0.174
LOU-NH91	0.805	0.82	0.41	0.373	0.322	0.643	0.7	0.32	0.224	0.166	0.775	0.757	0.741	0.706	0.403	0.697	0.543	0.254	0.187	0.201
LU99A	0.841	0.88	0.885	0.825	0.202	0.279	0.29	0.247	0.252	0.17	0.554	0.549	0.452	0.16	0.13	0.824		0.945	0.384	0.132
LXF-289	0.364	0.384	0.394	0.196	0.112	0.166	0.183	0.157	0.0616	0.046	0.817	0.825	0.682	0.23	0.0611	0.936	0.942	0.955	0.0537	0.0449
NCI-H23	0.288		0.312	0.162	0.163	0.306	0.366	0.352	0.111	0.107	0.559	0.603	0.439	0.181	0.108		0.495	0.834	0.212	0.126
NCI-H322M	0.783	0.671	0.705	0.6	0.45	0.468		0.442	0.278	0.308	0.97	0.866	0.817	0.447	0.128	1.34		1.18	1.24	1.09
NCI-H441	0.235	0.274	0.207	0.119	0.109	0.66	0.799	0.383	0.186	0.191	0.689	0.794	0.457	0.254	0.15	0.4	0.612	0.31	0.17	0.143
NCI-H460	0.479	0.471	0.56	0.296	0.0215	0.386	0.366	0.616	0.304	0.0187	0.948	0.839	0.159	0.0358	0.0091	1.08	1.15	1.34	0.0699	0.0164
NCI-H520	0.43	0.549	0.424	0.174	0.155	0.482	0.401	0.262	0.24	0.232	0.798	0.778	0.473	0.251	0.0942	1	0.959	0.347	0.145	0.157
NCI-H596	1.01	0.999	0.95	0.251	0.208	0.82	0.949	0.753	0.188	0.155	0.984	1.04	0.857	0.554	0.197	0.921	0.817	0.925	0.123	0.131
NCI-H647	0.483	0.404	0.38	0.0562	0.0417	0.297	0.19	0.203	0.0209	0.0248	1.19	1.06	0.683	0.0821	0.0474	0.997	1.1	0.619	0.0302	0.0207
NCI-H727	0.993	1.09	0.875	0.95	0.834	0.688	0.775	0.606	0.394	0.162	0.856	0.805	0.767	0.348	0.185	0.455	0.511	0.541	0.167	0.103
NCI-H838	0.473	0.467	0.459	0.184	0.138	0.251	0.298	0.327	0.109	0.123	0.89	0.936	0.742	0.434	0.0999	1.21	1.21	1.17	0.171	0.161
NCI-H1355	0.343	0.362	0.367	0.177	0.139	0.503	0.591	0.584	0.131	0.122	1	1.04	1.07	0.756	0.253	0.85	0.95	0.737	0.604	0.139
NCI-H1437	0.585	0.585	0.595	0.214	0.223	0.405	0.405	0.403	0.114	0.118	0.773	0.922	0.898	0.999	0.225	1.08	1.09	1.1	0.118	0.123
NCI-H1650	0.488	0.484	0.182	0.137	0.128	0.426	0.57	0.19	0.139	0.153	1.07	1.05	0.63	0.192	0.109	1.17	1.17	0.191	0.119	0.106
